According to patent publication US10544143B2, “4-azaindole compounds” (BRISTOL-MYERS SQUIBB COMPANY, priority 2017, dated 2020):
Read-outs that look alike come from different tables or passages of the source.

Key:
[1] = target: human TLR8 (Homo sapiens (Human), UniProt Q9NR97); assay: TLR8 inhibition reporter assay (HEK-Blue SEAP); settings: read-out: TLR8 IC50;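 also: SEAP driven by IFN-β minimal promoter carrying NF-κB and AP-1 sites, compounds dosed 0.05 nM to 50 µM for 22 h, inhibition scaled between agonist-plus-DMSO and reference-inhibitor wells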
Chain of human TLR8 (Q9NR97 27-1041): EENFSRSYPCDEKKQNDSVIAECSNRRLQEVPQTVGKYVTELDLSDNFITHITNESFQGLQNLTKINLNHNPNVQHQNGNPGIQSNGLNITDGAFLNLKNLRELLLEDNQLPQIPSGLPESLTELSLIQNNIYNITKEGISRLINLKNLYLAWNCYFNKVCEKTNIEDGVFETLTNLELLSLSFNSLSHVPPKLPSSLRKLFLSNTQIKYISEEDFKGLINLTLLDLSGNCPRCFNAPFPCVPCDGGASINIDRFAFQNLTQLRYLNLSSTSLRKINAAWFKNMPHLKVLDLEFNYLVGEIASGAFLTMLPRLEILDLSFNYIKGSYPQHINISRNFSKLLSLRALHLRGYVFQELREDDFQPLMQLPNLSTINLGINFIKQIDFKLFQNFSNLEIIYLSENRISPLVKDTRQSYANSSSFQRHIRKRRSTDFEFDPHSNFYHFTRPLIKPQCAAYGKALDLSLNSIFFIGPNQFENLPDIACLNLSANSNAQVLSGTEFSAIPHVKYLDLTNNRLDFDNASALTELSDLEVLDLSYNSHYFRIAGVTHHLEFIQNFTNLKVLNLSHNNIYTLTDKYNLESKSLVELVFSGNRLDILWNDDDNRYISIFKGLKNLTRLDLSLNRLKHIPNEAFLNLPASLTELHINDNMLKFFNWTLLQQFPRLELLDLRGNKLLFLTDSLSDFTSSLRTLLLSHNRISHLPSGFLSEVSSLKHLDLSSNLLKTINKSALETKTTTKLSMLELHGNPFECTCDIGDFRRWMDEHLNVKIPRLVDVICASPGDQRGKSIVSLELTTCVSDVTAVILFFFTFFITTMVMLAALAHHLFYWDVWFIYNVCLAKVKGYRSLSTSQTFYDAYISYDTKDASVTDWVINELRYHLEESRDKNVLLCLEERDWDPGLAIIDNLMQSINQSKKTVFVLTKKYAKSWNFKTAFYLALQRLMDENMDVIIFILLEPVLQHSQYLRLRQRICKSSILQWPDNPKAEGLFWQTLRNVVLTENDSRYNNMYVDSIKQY

[2] = target: human TLR9 (Homo sapiens (Human), UniProt Q9NR96); assay: TLR9 inhibition reporter assay (HEK-Blue SEAP); settings: read-out: TLR9 IC50;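 also: SEAP driven by an IFN-β minimal promoter with NF-κB and AP-1 sites, read after 22 h, compounds dosed 0.05 nM–50 µM, inhibition scaled between agonist plus DMSO and reference-inhibitor wells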
Chain of human TLR9 (Q9NR96 26-1032): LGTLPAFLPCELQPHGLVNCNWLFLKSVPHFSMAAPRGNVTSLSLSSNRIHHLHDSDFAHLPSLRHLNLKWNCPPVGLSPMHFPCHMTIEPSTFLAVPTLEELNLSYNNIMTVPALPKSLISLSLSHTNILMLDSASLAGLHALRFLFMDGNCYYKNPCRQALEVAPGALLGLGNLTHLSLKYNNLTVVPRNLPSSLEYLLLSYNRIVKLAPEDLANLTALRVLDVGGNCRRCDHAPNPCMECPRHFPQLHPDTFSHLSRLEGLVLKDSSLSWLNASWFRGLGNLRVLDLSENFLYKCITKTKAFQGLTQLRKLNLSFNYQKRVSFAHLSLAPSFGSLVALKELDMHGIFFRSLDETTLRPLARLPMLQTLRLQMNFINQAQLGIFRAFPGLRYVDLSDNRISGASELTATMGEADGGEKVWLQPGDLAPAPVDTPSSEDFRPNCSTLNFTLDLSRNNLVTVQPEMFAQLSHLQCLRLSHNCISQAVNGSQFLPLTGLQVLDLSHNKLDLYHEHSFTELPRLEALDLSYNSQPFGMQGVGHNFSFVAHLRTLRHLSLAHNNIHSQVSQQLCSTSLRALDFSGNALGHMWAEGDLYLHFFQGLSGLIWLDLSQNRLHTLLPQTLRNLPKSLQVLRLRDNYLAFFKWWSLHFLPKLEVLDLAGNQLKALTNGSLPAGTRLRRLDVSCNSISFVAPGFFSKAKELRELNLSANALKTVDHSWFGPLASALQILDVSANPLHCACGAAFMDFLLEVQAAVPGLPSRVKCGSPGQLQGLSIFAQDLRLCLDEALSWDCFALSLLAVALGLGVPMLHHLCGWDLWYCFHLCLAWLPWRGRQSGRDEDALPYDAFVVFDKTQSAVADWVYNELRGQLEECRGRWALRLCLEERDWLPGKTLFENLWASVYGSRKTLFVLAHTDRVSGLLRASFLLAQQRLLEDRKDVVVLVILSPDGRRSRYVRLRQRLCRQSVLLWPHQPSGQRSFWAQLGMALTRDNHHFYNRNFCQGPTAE

[3] = target: human TLR7 (Homo sapiens (Human), UniProt Q9NYK1); assay: TLR7 inhibition reporter assay (HEK-Blue SEAP); assay type: cell-based
Chain of human TLR7 (Q9NYK1 27-1049): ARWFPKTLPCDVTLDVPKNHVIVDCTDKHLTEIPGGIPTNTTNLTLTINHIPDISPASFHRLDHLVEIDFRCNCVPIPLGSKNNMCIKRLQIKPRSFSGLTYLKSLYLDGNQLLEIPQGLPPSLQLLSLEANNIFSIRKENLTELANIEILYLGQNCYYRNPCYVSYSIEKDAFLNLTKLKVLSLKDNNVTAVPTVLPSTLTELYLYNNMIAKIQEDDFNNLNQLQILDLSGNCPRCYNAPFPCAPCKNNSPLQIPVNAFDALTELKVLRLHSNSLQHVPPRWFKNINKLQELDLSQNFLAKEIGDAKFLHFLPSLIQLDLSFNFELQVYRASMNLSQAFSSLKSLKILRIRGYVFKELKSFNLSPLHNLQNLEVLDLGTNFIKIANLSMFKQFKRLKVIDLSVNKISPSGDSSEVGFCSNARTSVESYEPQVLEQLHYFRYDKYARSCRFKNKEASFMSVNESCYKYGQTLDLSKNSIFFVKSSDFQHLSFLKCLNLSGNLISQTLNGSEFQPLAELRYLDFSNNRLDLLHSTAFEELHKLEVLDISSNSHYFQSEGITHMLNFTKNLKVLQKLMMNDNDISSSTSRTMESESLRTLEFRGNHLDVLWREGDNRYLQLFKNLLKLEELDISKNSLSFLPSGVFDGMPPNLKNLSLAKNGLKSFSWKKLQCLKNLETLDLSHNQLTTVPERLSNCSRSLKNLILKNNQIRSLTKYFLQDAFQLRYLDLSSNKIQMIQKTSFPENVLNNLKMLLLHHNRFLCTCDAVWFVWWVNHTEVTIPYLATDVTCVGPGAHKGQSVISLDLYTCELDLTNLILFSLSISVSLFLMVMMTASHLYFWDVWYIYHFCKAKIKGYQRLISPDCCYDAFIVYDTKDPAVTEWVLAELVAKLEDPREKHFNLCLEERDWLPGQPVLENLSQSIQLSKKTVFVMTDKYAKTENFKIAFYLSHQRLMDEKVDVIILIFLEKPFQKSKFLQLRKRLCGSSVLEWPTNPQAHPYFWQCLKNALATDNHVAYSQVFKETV

[4] = HEK-Blue human TLR8 cells, R848 15.9 μM
[5] = HEK-Blue human TLR9 cells, ODN2006 5 nM
[6] = HEK-Blue human TLR7 cells, gardiquimod 7.5 μM
[7] = HEK-Blue cells overexpressing human TLR8, R848 15.9 μM stimulation, SEAP reporter
[8] = HEK-Blue cells overexpressing human TLR9, ODN2006 5 nM stimulation, SEAP reporter
[9] = HEK-Blue cells overexpressing human TLR7, gardiquimod 7.5 μM stimulation, SEAP reporter
[10] = HEK-Blue cells overexpressing human TLR8, SEAP reporter, R848 15.9 μM
[11] = HEK-Blue cells overexpressing human TLR9, SEAP reporter, ODN2006 5 nM
[12] = HEK-Blue cells overexpressing human TLR7, SEAP reporter, gardiquimod 7.5 μM

| Compound | IC50 [1, 7] [nM] | IC50 [2, 8] [nM] | IC50 [3, 9] [nM] | IC50 [1, 10] [nM] | IC50 [2, 11] [nM] | IC50 [3, 12] [nM] | further results |
| --- | --- | --- | --- | --- | --- | --- | --- |
| Cc1c(-c2[nH]c3ccc(N4C[C@H](C)N(CCC(N)=O)C[C@H]4C)nc3c2C(C)C)cn2ncnc2c1C [Example 847] | – | – | – | – | – | – | IC50 [1, 4]: 8.3 nM; IC50 [2, 5]: 22500 nM; IC50 [3, 6]: 4.9 nM |
| Cc1c(-c2[nH]c3ccc(N4CCN(C(=O)CN(C)C)[C@@H](C)C4)nc3c2C(C)C)cn2ncnc2c1C [Example 887] | – | – | – | – | – | – | IC50 [1, 4]: 0.68 nM; IC50 [2, 5]: 8120 nM; IC50 [3, 6]: 0.5 nM |
| COc1cc(-c2[nH]c3ccc(N4CCN(C(C)C)CC4)nc3c2C(C)C)cn2ncnc12 [Example 92] | 0.78 | 3990 | 0.87 | – | – | – | – |
| COc1cc(-c2[nH]c3cc(C)c(C(=O)N4CCN(C(C)=O)CC4)nc3c2C(C)C)cn2ncnc12 [Example 733] | – | – | – | 1010 | > 50000 | 53 | – |
| COc1cc(-c2[nH]c3ccc(C4CCC(=O)CC4)nc3c2C(C)C)cn2ncnc12 [Example 176] | 84 | 16000 | 5.2 | – | – | – | – |
| Cc1c(-c2[nH]c3ccc(C4CCC(N(C)C(=O)CN(C)C)CC4)nc3c2C(C)C)cn2ncnc2c1C (stereo not drawn) [Example 396] | – | – | – | 17 | 1530 | 1.7 | – |
| Cc1c(-c2[nH]c3ccc(C4CCC(NCCC(F)(F)F)CC4)nc3c2C(C)C)cn2ncnc2c1C (stereo not drawn) [Example 373] | 8.3 | 1960 | 8.6 | – | – | – | – |
| Cc1c(-c2[nH]c3ccc(N4CC5(CCN(CCS(C)(=O)=O)CC5)C4)nc3c2C(C)C)cn2ncnc2c1C [Example 45] | 20 | 7280 | 22 | – | – | – | – |
| COc1cc(-c2[nH]c3ccc(OCC4CN(C)C4)nc3c2C(C)C)cn2ncnc12 [Example 608, 6-(3-isopropyl-5-((1-methylazetidin-3-yl)methoxy)-1H-pyrrolo[3,2-b]pyridin-2-yl)-8-methoxy-[1,2,4]triazolo[1,5-a]pyridine] | – | – | – | 6.1 | 1710 | 1.1 | – |
| CC(C)c1c(-c2cn(C)c3ncccc23)[nH]c2ccc(C3CCC(NC4CC4)CC3)nc12 (stereo not drawn) [Example 243] | 9.5 | 999 | 7.6 | – | – | – | – |
| Cc1c(-c2[nH]c3ccc(N4CCC(N(C)CC5CC5)CC4)nc3c2C(C)C)cn2ncnc2c1C [Example 58] | 0.72 | 1970 | 1.3 | – | – | – | – |
| COc1cc(-c2[nH]c3ccc(C4CCC(N5CC6(C5)CS(=O)(=O)C6)CC4)nc3c2C(C)C)cn2ncnc12 (stereo not drawn) [Example 248] | 13 | 1780 | 1.5 | – | – | – | – |
| Cc1c(-c2[nH]c3ccc(N4CCN(C(=O)CNCC5CC5)CC4)nc3c2C(C)C)cn2ncnc2c1C [Example 161] | 0.92 | 5920 | 1.4 | – | – | – | – |
| Cc1c(-c2[nH]c3ccc(N4CCC(N(Cc5c[nH]nn5)Cc5c[nH]nn5)CC4)nc3c2C(C)C)cn2ncnc2c1C [Example 48] | 9.3 | 31300 | 7.4 | – | – | – | – |
| COc1cc(-c2[nH]c3cc(C)c(C4CCC(NCC5(C)COC5)CC4)nc3c2C(C)C)cn2ncnc12 (stereo not drawn) [Example 312] | 1.6 | 577 | 0.26 | – | – | – | – |
| Cc1c(-c2[nH]c3ccc(C4CCC(N(C5CC5)C5COC5)CC4)nc3c2C(C)C)cn2cnnc2c1C (stereo not drawn) [Example 239] | 181 | > 50000 | 106 | – | – | – | – |
| CC(C)c1c(-c2cc(CO)c3ncnn3c2)[nH]c2ccc(N3CCC(NCC(=O)N(C)C)CC3)nc12 [Example 84] | > 3120 | > 50000 | 2200 | – | – | – | – |
| Cc1c(-c2[nH]c3ccc(N4[C@@H]5CC[C@H]4CN(C(=O)CN(C)C(C)(C)C)C5)nc3c2C(C)C)cn2ncnc2c1C [Example 924] | – | – | – | – | – | – | IC50 [1, 4]: 4.9 nM; IC50 [2, 5]: 7230 nM; IC50 [3, 6]: 1.7 nM |
| Cc1c(-c2[nH]c3ccc(C4CC5(C4)CN(CC(C)(C)O)C5)nc3c2C(C)C)cn2ncnc2c1C [Example 1028] | – | – | – | – | – | – | IC50 [1, 4]: 2.1 nM; IC50 [2, 5]: 17000 nM; IC50 [3, 6]: 7.6 nM |
| Cc1c(-c2[nH]c3ccc(C4CCC(N(CC#N)CC5(S(C)(=O)=O)CC5)CC4)nc3c2C(C)C)cn2ncnc2c1C (stereo not drawn) [Example 478] | – | – | – | 15 | 24500 | 13 | – |
| Cc1c(-c2[nH]c3ccc(C4CCC(NCC(C)(C)S(C)(=O)=O)CC4)nc3c2C(C)C)cn2ncnc2c1C (stereo not drawn) [Example 454] | – | – | – | 0.68 | 2390 | 1.2 | – |
| Cc1c(-c2[nH]c3ccc(C4CCC(NC5(C)COC5)CC4)nc3c2C(C)C)cn2ncnc2c1C (stereo not drawn) [Example 473] | – | – | – | 9.6 | 7370 | 7.1 | – |
| COCc1cc(-c2[nH]c3ccc(C4CCC(NCC(=O)N(C)C)CC4)nc3c2C(C)C)cn2ncnc12 (stereo not drawn) [Example 213] | 17 | 706 | 9.5 | – | – | – | – |

| Compound | IC50 [1, 7] [nM] | IC50 [2, 8] [nM] | IC50 [3, 9] [nM] | IC50 [1, 10] [nM] | IC50 [2, 11] [nM] | IC50 [3, 12] [nM] | further results |
| --- | --- | --- | --- | --- | --- | --- | --- |
| Cc1c(-c2[nH]c3ccc(C4CCC(NC(C)C)CC4)nc3c2C(C)C)cn2ncnc2c1C (stereo not drawn) [Example 363] | 6.6 | 1480 | 3.3 | – | – | – | – |
| Cc1nccc(CN(Cc2ccnc(C)n2)C2CCN(c3ccc4[nH]c(-c5cn6ncnc6c(C)c5C)c(C(C)C)c4n3)CC2)n1 [Example 74] | 2560 | > 50000 | 2470 | – | – | – | – |
| COc1cc(-c2[nH]c3ccc(C4CCC(N5CCCC5)CC4)nc3c2C(C)C)cn2ncnc12 (stereo not drawn) [Example 192] | 19 | 1110 | 3.1 | – | – | – | – |
| Cc1c(-c2[nH]c3ccc(N4CCN[C@@H](C(C)C)C4)nc3c2C(C)C)cn2ncnc2c1C [Example 983] | – | – | – | – | – | – | IC50 [1, 4]: 0.12 nM; IC50 [2, 5]: 6520 nM; IC50 [3, 6]: 0.82 nM |
| Cc1c(-c2[nH]c3ccc(N4CC5(CN(CC(=O)N(C)C)C5)C4)nc3c2C(C)C)cn2ncnc2c1C [Example 742, 2-(6-(2-(7,8-dimethyl-[1,2,4]triazolo[1,5-a]pyridin-6-yl)-3-isopropyl-1H-pyrrolo[3,2-b]pyridin-5-yl)-2,6-diazaspiro[3.3]heptan-2-yl)-N,N-dimethylacetamide] | – | – | – | 3.1 | 4580 | 2.9 | – |
| COc1cc(-c2[nH]c3ccc(C4CC(N)C4)nc3c2C(C)C)cn2ncnc12 (stereo not drawn) [Example 620] | – | – | – | 2.4 | 223 | 0.73 | – |
| CCn1cc(-c2[nH]c3ccc(C4CCC(NC5CCOCC5)CC4)nc3c2C(C)C)c2cccnc21 (stereo not drawn) [Example 292] | 127 | 1620 | 99 | – | – | – | – |
| COc1ncc(CNC2CCN(c3ccc4[nH]c(-c5cn6ncnc6c(C)c5C)c(C(C)C)c4n3)CC2)cn1 [Example 72] | 0.9 | 3420 | 2.9 | – | – | – | – |
| Cc1c(-c2[nH]c3ccc(N4CCN(C(=O)CN5CCC6(COC6)C5)CC4)nc3c2C(C)C)cn2ncnc2c1C [Example 957] | – | – | – | – | – | – | IC50 [1, 4]: 2.9 nM; IC50 [2, 5]: 24400 nM; IC50 [3, 6]: 0.92 nM |
| Cc1c(-c2[nH]c3ccc(N4C[C@@H](C)N(C(=O)CCN5CC6(CCOC6)C5)C[C@@H]4C)nc3c2C(C)C)cn2ncnc2c1C [Example 960] | – | – | – | – | – | – | IC50 [1, 4]: 0.32 nM; IC50 [2, 5]: 3170 nM; IC50 [3, 6]: 0.77 nM |
| COc1cc(-c2[nH]c3ccc(C4CNCCO4)nc3c2C(C)C)cn2ncnc12 (stereo not drawn) [Example 676] | – | – | – | 2.5 | 5720 | 1 | – |
| COc1cc(-c2[nH]c3cc(C)c(C4CCC(N5CCC5)CC4)nc3c2C(C)C)cn2ncnc12 (stereo not drawn) [Example 326] | 3.7 | 988 | 0.13 | – | – | – | – |
| Cc1c(-c2[nH]c3ccc(C4CCC(NC(C)(C)C(=O)N(C)C)CC4)nc3c2C(C)C)cn2ncnc2c1C (stereo not drawn) [Example 495] | – | – | – | 1.3 | 3600 | 3.3 | – |
| Cc1c(-c2[nH]c3ccc(N4CC5(CCN(C(C)C)CC5)C4)nc3c2C(C)C)cn2ncnc2c1C [Example 46] | 4.9 | 1680 | 4.3 | – | – | – | – |
| Cc1c(-c2[nH]c3ccc(N4CCC(N(C)C5CCOCC5)CC4)nc3c2C(C)C)cn2ncnc2c1C [Example 55] | 0.39 | 3340 | 2.1 | – | – | – | – |
| Cc1cc2[nH]c(-c3cc(C)c4ncnn4c3)c(C(C)C)c2nc1C1CCN(C2CCOCC2)CC1 [Example 575] | – | – | – | 121 | 1350 | 0.44 | – |
| Cc1c(-c2[nH]c3ccc(C4CC(N(C)CC5(C)COC5)C4)nc3c2C(C)C)cn2ncnc2c1C (stereo not drawn) [Example 626] | – | – | – | 8 | 13500 | 29 | – |
| CCN(C)C1CCC(c2ccc3[nH]c(-c4cn5ncnc5c(C)c4C)c(C(C)C)c3n2)CC1 (stereo not drawn) [Example 388] | 2.2 | 891 | 0.87 | – | – | – | – |
| CCN(CC(=O)N(C)C)C1CCC(c2nc3c(C(C)C)c(-c4cn5ncnc5c(C)c4C)[nH]c3cc2F)CC1 (stereo not drawn) [Example 509] | – | – | – | 30 | 9100 | 17 | – |
| COc1cc(-c2[nH]c3ccc(OCC4CCN(CC(C)(C)O)CC4)nc3c2C(C)C)cn2ncnc12 [Example 597, 1-(4-(((3-isopropyl-2-(8-methoxy-[1,2,4]triazolo[1,5-a]pyridin-6-yl)-1H-pyrrolo[3,2-b]pyridin-5-yl)oxy)methyl)piperidin-1-yl)-2-methylpropan-2-ol] | – | – | – | 1.2 | 918 | 1.3 | – |
| Cc1c(-c2[nH]c3ccc(N4CCN(CC(=O)N(C)C)CC4)nc3c2C(C)C)cn2ncnc2c1C [Example 144] | 1.2 | > 50000 | 8.4 | – | – | – | – |
| Cc1cnc(CNC2CCC(c3ccc4[nH]c(-c5cn(C)c6ncccc56)c(C(C)C)c4n3)CC2)cn1 (stereo not drawn) [Example 207] | 4.4 | 253 | 1.9 | – | – | – | – |
